This is an account of results in patent US8822407B2, “Preparation of conjugates comprising adenine derivatives and allergenic proteins and their use for specific immunotherapy of allengenic diseases” (Universita' Degli Studi di Firenze, priority 2010, dated 2014).

In the experiment the target is T1, TLR8 (Homo sapiens, UniProt Q9NR97).
T1 construct: expressed in transfected cells; host or cells: HEK293 (transient Nucleofection, Amaxa)
T1 sequence (Q9NR97 27-1041): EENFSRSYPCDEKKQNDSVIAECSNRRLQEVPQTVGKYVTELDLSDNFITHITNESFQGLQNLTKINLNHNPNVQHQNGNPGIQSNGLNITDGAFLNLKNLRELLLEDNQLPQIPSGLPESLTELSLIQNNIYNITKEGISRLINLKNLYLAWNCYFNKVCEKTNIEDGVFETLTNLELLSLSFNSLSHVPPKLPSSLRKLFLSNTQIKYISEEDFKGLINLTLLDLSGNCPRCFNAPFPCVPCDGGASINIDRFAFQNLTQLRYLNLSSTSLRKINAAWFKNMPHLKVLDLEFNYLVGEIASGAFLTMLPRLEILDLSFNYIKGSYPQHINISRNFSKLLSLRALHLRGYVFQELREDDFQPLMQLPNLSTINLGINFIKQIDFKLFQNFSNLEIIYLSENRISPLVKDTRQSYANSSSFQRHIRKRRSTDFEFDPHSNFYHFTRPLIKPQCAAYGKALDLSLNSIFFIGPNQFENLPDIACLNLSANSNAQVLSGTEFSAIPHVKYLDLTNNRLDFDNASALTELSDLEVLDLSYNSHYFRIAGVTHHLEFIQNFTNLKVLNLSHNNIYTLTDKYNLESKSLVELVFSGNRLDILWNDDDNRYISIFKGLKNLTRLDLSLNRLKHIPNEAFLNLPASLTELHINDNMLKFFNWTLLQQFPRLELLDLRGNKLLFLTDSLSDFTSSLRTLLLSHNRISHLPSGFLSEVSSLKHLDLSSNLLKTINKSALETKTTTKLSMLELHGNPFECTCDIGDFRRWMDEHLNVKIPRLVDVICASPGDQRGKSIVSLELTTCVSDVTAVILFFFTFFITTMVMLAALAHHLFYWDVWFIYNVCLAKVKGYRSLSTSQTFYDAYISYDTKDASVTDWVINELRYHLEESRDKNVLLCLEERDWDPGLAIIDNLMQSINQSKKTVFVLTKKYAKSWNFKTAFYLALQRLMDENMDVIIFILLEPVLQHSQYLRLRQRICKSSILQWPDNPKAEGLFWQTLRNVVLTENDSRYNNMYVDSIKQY
The experiment can be described thus: TLR8-transfected HEK293 cells, NF-kB luciferase reporter. Conditions: R-848 2 μg/ml; data not shown. It is filed as cell-based. The method, then: HEK293 cells are detached by trypsin from the plastic surface of the culture bottle, extensively washed with calcium and magnesium-free PBS, counted and adjusted at the concentration 1×10^6 cells/tube in polypropylene V-bottomed tubes. After the final wash, the cells are pelleted and 100 μl transfection buffer (Amaxa) is added together with […], TLR7, TLR8 or TLR9-encoding and ELAM-1 promoter NF-kB luciferase reporter plasmids. The mixture thus obtained is transferred in special cuvettes and transient transfection is obtained in a special apparatus which is able to directly introduce genetic material into the nucleus (Nucleofection®, Amaxa GmbH). The cells are then recovered and cultured at 1×10^5/ml in 48-flat bottomed plates in E-MEM medium plus 5% foetal calf serum for 18 hrs. […] Finally the luciferase activity is measured in the cellular lysates by a commercial kit (Promega).
(Reporter assays use an easily measured gene product as a stand-in for the process of interest.)

Take `CCOCc1nc2c(N)nc3ccccc3c2n1CC(C)(C)O` [Conj R-848, reference compound]: the “NF-κB expression in TLR8-transfected HEK293 cells” value was “able to induce NF-κB expression”.
